Results from patent US20250235543A1, “MODIFIED PROTEINS AND PROTEIN DEGRADERS” (Cullgen (Shanghai), Inc., priority 2021, published 2025).

How the values were obtained:
MDA-MB-468 = assay: Cell viability assay, MDA-MB-468; type: cell-based; settings: Homo sapiens, 72 h; MDA-MB-468, TNBC, 3 days; read-out: Cellular Anti-proliferation activity (IC50)
Protocol: Cells were treated with CDK4/6 inhibitors palbociclib, ribociclib, or abemaciclib, or heterobifunctional compounds CPD-002 or CPD-031 following a 9-point serial dilution for 3 days.
Cells were seeded at a density of 2,000-5,000 cells per well in 96-well assay plates and treated with test compounds following a 10-point serial dilution for 3-6 days. Cell viability was determined using the CellTiter-Lumi assay kit according to the manufacturer's instructions. The dose-response curves were determined and IC50 values were calculated using the GraphPad Prism software following a nonlinear regression (least squares fit) method. Data presented was mean±standard deviation (SD) unless otherwise indicated.

[1] = test system: Rb phosphorylation, cleaved caspase-3; assay: Immunoblotting of downstream Rb phosphorylation and cleaved caspase-3 in Calu-1 or BT-549 cells; type: cell-based; settings: 16 hours
Protocol: (§1) Calu-1 (FIG. 2A) or BT-549 (FIG. 2B) cells were treated with CPD-002, CPD-004, or palbociclib at indicated concentrations for 16 hours.
(§2) Cultured cells were washed with cold PBS once and lysed in cold RIPA buffer supplemented with protease inhibitors and phosphatase inhibitors (Beyotime Biotechnology). The solutions were then incubated at 4° C. for 30 min with gentle agitation to fully lysed cells. Cell lysates were centrifuged at 13,000 rpm for 10 min at 4° C. and pellets were discarded. Total protein concentrations in the lysates were determined following BCA assays (Beyotime Biotechnology). Cell lysates were mixed with Laemmli loading buffer and heated at 99° C. for 5 min. Proteins were resolved on SDS-PAGE and visualized using Western ECL Substrate kits on a ChemiDoc MP Imaging system (Bio-Rad). Protein bands were quantitated using the Image Lab software provided by Bio-Rad.

CDK4, CDK6 = assay: Immunoblot of CDK4 and CDK6 protein levels in Calu-1 cells; type: cell-based; settings: 500 nM CPD-002
Protocol: Specific exemplary heterobifunctional compounds were characterized in Calu-1, BT-549 and other cells. Cells that express cyclin D1-3 and CDK4/6 proteins were treated with heterobifunctional compounds disclosed herein at indicated concentrations for 16 hours. Cells were collected, lysed and subject to immunoblotting using an antibody specific to cyclin D1, cyclin D2, cyclin D3, CDK4, CDK6 or phosphorylated R^b proteins. Tubulin or GAPDH was used as the loading control. DMSO treatment was used as the negative control.
In a time-course study, Calu-1 cells were treated with 500 nM CPD-002, or 100 nM CPD-031 for indicated period of time prior to immunoblotting (FIG. 4A-4B).
To verify that heterobifunctional compound-mediated degradation is dependent on the binding to CDK4-cyclin D complex, we designed three negative control compounds, CPD-042, CPD-049 and CPD-380, which are derived from CPD-002 CPD-031 and CPD-343, respectively. These three control compounds bear the same DDB1 ligand and linker as their corresponding active heterobifunctional compounds but with modified warheads to impair the binding of the control compounds to CDK4. […] Two cereblon (CRBN)-recruiting reference heterobifunctional compounds, CP-10 (Su, J Med Chem, 2019; CAS No.: 2366268-80-4) and BSJ-03-123 (Brand, Cell Chem Biol, 2019; CAS No.: 2361493-16-3) were analyzed in Calu-1 cells.

[2] = test system: cyclin D1, cyclin D2, cyclin D3, CDK4 and CDK6; assay: Immunoblotting of cyclin D and CDK4/6 protein levels in BT-549 cells; type: cell-based; settings: indicated concentrations, 16 hours
Protocol: as §1, §2

DDB1 = biological target: T1, DDB1 (Homo sapiens, UniProt Q16531, D705G/DEL396-460/DEL463-701/I704S/T703N); assay: Surface plasmon resonance (SPR) binding of heterobifunctional compounds to DDB1; settings: purified DDB1ΔBPB immobilized on CM5 chip, multi-cycle kinetic format, steady state model, read-out: binding affinities (Kd) to DDB1
T1 construct: His6 (N, cleaved yes); TEV protease cleavage site (N, cleaved yes); made in house; host or cells: SF9 insect cells, Bac-to-Bac baculovirus, pFastBacHTB vector
T1 sequence (Q16531 other isoform, or with tags, fused parts or gaps DEL396-460/DEL463-701/T703N/I704S/D705G): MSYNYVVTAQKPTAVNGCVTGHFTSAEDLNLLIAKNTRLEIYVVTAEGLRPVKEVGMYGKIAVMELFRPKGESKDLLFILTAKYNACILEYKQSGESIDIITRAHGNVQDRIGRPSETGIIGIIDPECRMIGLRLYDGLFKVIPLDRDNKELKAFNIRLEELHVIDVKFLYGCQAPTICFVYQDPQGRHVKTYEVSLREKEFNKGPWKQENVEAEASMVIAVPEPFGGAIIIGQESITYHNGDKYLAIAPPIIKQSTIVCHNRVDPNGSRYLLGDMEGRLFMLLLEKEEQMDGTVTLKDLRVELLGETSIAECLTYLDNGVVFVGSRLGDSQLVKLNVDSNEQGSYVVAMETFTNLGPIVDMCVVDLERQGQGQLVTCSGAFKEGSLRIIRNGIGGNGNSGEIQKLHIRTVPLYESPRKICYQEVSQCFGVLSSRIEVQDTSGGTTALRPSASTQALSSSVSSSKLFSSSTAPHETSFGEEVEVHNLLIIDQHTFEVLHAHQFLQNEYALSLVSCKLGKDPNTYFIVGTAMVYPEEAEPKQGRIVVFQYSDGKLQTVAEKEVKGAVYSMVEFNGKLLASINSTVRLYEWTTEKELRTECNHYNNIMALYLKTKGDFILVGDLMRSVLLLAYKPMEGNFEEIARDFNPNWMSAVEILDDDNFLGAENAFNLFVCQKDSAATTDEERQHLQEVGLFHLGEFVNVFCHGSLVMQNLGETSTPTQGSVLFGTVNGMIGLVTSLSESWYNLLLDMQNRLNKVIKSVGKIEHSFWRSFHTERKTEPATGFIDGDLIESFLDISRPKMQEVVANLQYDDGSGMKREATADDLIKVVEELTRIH
Protocol: To determine whether the addition of linkers and target binders to the DDB1 ligands affected the binding to DDB1 E3 ligase, the binding affinities of heterobifunctional compounds to DDB1 was evaluated using a surface plasmon resonance (SPR) assay. Purified DDB1ΔBPB proteins were immobilized on a CM5 sensor chip and a dose range of compound solutions were injected in multi-cycle kinetic format. Data was fit to steady state model and gave equivalent dissociation constants (Kd).

Row | SMILES | IC50 (MDA-MB-468) [µM] | downstream Rb phosphorylation and cleaved caspase-3 [1] | degradation of CDK4 and CDK6 relative to cyclin D, time-course (CDK4, CDK6) | cyclin D1, cyclin D2, cyclin D3, CDK4 and CDK6 protein levels [2] | Kd (DDB1) [µM]
1 | CC(=O)c1c(C)c2cnc(Nc3ccc(N4CCN(CC(=O)NCCOCCOCCOCCOCCOCCNc5ccc(C(=O)Nc6ncc(C)s6)c(C)c5)CC4)cn3)nc2n(C2CCCC2)c1=O [CPD-002, 4-((1-(4-(6-((6-Acetyl-8-cyclopentyl-5-methyl-7-oxo-7,8-dihydropyrido[2,3-d]pyrimidin-2-yl)amino)pyridin-3-yl)piperazin-1-yl)-2-oxo-6,9,12,15,18-pentaoxa-3-azaicosan-20-yl)amino)-2-methyl-N-(5-methylthiazol-2-yl)benzamide] | 1.48 | inhibited downstream Rb phosphorylation and induced cleaved caspase-3 in a concentration-dependent manner | occurred much slower | reduced cyclin D1, cyclin D2, cyclin D3, CDK4 and CDK6 protein levels in a concentration-dependent manner | –
2 | CC(=O)c1c(C)c2cnc(Nc3ccc(N4CCN(CC(=O)NCCOCCOCCOCCOCCOCCNc5ccc(C(=O)Nc6nc(C)c(C)s6)c(C)c5)CC4)cn3)nc2n(C2CCCC2)c1=O [CPD-031, 4-((1-(4-(6-((6-Acetyl-8-cyclopentyl-5-methyl-7-oxo-7,8-dihydropyrido[2,3-d]pyrimidin-2-yl)amino)pyridin-3-yl)piperazin-1-yl)-2-oxo-6,9,12,15,18-pentaoxa-3-azaicosan-20-yl)amino)-N-(4,5-dimethylthiazol-2-yl)-2-methylbenzamide] | – | – | – | – | 5.7
